# In US20220324835A1 (Nurix Therapeutics, Inc., priority 2018, published 2022):
# Key:
# Cbl-b [1] = biological target: T1, Cbl-b (Homo sapiens, UniProt Q13191); experiment: Cbl-b inhibition assay (Cbl-b activity assay, FRET, Biological Example 1; 100 mM NaCl, 60 nM Src kinase); type: biochemical; conditions: upper bound stated in text lists; read-out: IC50 values in the Cbl-b inhibition assay of Biological Example 1
# Procedure, shortened: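 Binding-based Cbl-b activity assay. Src-phosphorylated, N-terminally biotin-Avi-tagged Cbl-b recruits labelled UbcH5B-Ub, and proximity to streptavidin-terbium yields FRET.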
# Cbl-b [2] = biological target: T1, Cbl-b; experiment: Cbl-b activity assay (Cbl-b inhibition assay), TR-FRET of Cbl-b interaction with UbcH5B-Ub; type: biochemical; conditions: assay buffer with 100 mM NaCl, 60 nM Src kinase; read-out: Cbl-b activity IC50
# Procedure, shortened: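 TR-FRET readout of Cbl-b binding to Bodipy-fluorescein N-terminally labeled Ub conjugated to UbcH5B C85K, measured with compound present. After compound incubation, 60 nM Src kinase with 1 mM ATP and 5 mM MgCl2 (final) was added for 1.5 h, then a further 1 h incubation; asterisked values used 50 mM NaCl buffer and 30 nM Src.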
# Cbl-b (residues 36-427) = Cbl-b (residues 36-427) (Homo sapiens, UniProt Q13191); experiment: Cbl-b binding assay (SPR, Biacore T200); conditions: 20° C., 1:1 binding model
# Cbl-b (residues 36-427), sequence (Q13191 36-427): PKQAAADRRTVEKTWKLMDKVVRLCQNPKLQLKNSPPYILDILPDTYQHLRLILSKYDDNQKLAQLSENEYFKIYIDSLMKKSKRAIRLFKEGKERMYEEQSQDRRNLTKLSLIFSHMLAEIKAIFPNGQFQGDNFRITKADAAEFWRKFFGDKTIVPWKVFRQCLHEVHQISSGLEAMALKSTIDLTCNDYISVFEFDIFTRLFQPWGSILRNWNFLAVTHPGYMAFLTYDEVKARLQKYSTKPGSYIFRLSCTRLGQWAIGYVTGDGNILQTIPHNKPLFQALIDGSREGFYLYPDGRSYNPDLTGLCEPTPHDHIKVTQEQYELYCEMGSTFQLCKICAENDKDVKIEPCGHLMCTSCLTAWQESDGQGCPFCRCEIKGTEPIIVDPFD
# Procedure, shortened: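 Affinities derived from global 1:1 steady-state or kinetic fits of double-referenced, solvent-corrected SPR data, 20 °C, NeutrAvidin-capture chip. Compound series (top 100 or 50 μM, 8–10 points) injected 50 s, 90–180 s dissociation. Asterisked values used 50 mM instead of 100 mM NaCl and 30 nM Src kinase.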
# T1 sequence (Q13191 36-427): as above
SMILES,IC50 (Cbl-b [1]),IC50 (Cbl-b [2]),Kd (Cbl-b (residues 36-427))
"C[C@H](Cc1nncn1C)c1cccc(NC(=O)c2cc(C(=O)N3CC[C@](C)(N)C3)ccn2)c1 [Compound 229, 4-((S)-3-amino-3-methylpyrrolidine-1-carbonyl)-N-(3-((R)-1-(4-methyl-4H-1,2,4-triazol-3-yl)propan-2-yl)phenyl)picolinamide]",≤ 10 µM,1 to 3 µM,1 to 3 µM
"C[C@H](Cc1nncn1C)c1cccc(NC(=O)c2cc(C(=O)N3CCC(O)C3(C)C)ccn2)c1 (stereo partly drawn) [Compound 231, 4-(3-hydroxy-2,2-dimethylpyrrolidine-1-carbonyl)-N-(3-((R)-1-(4-methyl-4H-1,2,4-triazol-3-yl)propan-2-yl)phenyl)picolinamide]",≤ 10 µM,1 to 3 µM,0.1 to 0.3 µM
"C[C@H](Cc1nncn1C)c1cccc(NC(=O)c2cc(C(=O)N3CCC4(COC4)C3)ccn2)c1 [Compound 233, N-[3-[(2R)-1-(4-methyl-4H-1,2,4-triazol-3-yl)propan-2-yl]phenyl]-4-[2-oxa-6-azaspiro[3.4]octane-6-carbonyl]pyridine-2-carboxamide]",≤ 10 µM,3 to 10 µM,3 to 10 µM
"C[C@H](Cc1nncn1C)c1cccc(NC(=O)c2cc(C(=O)N3C[C@@H]4[C@@H](O)[C@@H]4C3)ccn2)c1 [Compound 234, 4-[(1R,5S,6R)-6-hydroxy-3-azabicyclo[3.1.0]hexane-3-carbonyl]-N-[3-[(2R)-1-(4-methyl-4H-1,2,4-triazol-3-yl)propan-2-yl]phenyl]pyridine-2-carboxamide]",≤ 10 µM,1 to 3 µM,1 to 3 µM
"C[C@H](Cc1nncn1C)c1cccc(NC(=O)c2cc(C(=O)N3C[C@H](O)[C@@H](F)C3)ccn2)c1 [Compound 235, 4-[(3S,4S)-3-fluoro-4-hydroxypyrrolidine-1-carbonyl]-N-[3-[(2R)-1-(4-methyl-4H-1,2,4-triazol-3-yl)propan-2-yl]phenyl]pyridine-2-carboxamide]",≤ 10 µM,1 to 3 µM,3 to 10 µM
"C[C@H](Cc1nncn1C)c1cccc(NC(=O)c2cc(C(=O)N3CC[C@H](C#N)C3)ccn2)c1 [Compound 236, 4-[(3S)-3-cyanopyrrolidine-1-carbonyl]-N-[3-[(2R)-1-(4-methyl-4H-1,2,4-triazol-3-yl)propan-2-yl]phenyl]pyridine-2-carboxamide]",≤ 10 µM,1 to 3 µM,1 to 3 µM
"C[C@H](Cc1nncn1C)c1cccc(NC(=O)c2cc(C(=O)N3CC[C@@H](C#N)C3)ccn2)c1 [Compound 238, 4-((R)-3-cyanopyrrolidine-1-carbonyl)-N-(3-((R)-1-(4-methyl-4H-1,2,4-triazol-3-yl)propan-2-yl)phenyl)picolinamide]",≤ 10 µM,1 to 3 µM,1 to 3 µM
"C[C@H](Cc1nncn1C)c1cccc(NC(=O)c2cc(C(=O)N3CC(O)C(C)(C)C3)ccn2)c1 (stereo partly drawn) [Compound 239, 4-(4-hydroxy-3,3-dimethylpyrrolidine-1-carbonyl)-N-(3-((R)-1-(4-methyl-4H-1,2,4-triazol-3-yl)propan-2-yl)phenyl)picolinamide]",≤ 10 µM,1 to 3 µM,0.1 to 0.3 µM
"CC(O)C1CN(C(=O)c2ccnc(C(=O)Nc3cccc([C@H](C)Cc4nncn4C)c3)c2)C1 (stereo partly drawn) [Compound 241, 4-(3-(1-hydroxyethyl)azetidine-1-carbonyl)-N-(3-((R)-1-(4-methyl-4H-1,2,4-triazol-3-yl)propan-2-yl)phenyl)picolinamide]",≤ 10 µM,3 to 10 µM,< 0.1 µM
"C[C@H](Cc1nncn1C)c1cccc(NC(=O)c2cc(C(=O)N3CCNCC3)ccn2)c1 [Compound 242, (R)-N-(3-(1-(4-methyl-4H-1,2,4-triazol-3-yl)propan-2-yl)phenyl)-4-(piperazine-1-carbonyl)picolinamide]",≤ 10 µM,3 to 10 µM,3 to 10 µM
